Test results from patent US20250136614A1, “2,7-SUBSTITUTED PYRROLO[2,1-F][1,2,4]TRIAZINE COMPOUND HAVING PROTEIN KINASE INHIBITORY ACTIVITY” (Magicbullettherapeutics Co., Ltd., priority 2021, published 2025).
Where a chain is given by its changes, count along the chain named.

Legend:
Ba/F3 FLT3 (ITD) = molecular target: T1, Ba/F3 FLT3 (ITD) (Homo sapiens, UniProt P36888, cells depend on it, form not given); test: Ba/F3 cell growth inhibition (CellTiter-Glo, 72 hours); assay type: cell-based; settings: read-out: Ba/F3 GI50s (μM) FLT3 (ITD)
T1 sequence (P36888 1-993): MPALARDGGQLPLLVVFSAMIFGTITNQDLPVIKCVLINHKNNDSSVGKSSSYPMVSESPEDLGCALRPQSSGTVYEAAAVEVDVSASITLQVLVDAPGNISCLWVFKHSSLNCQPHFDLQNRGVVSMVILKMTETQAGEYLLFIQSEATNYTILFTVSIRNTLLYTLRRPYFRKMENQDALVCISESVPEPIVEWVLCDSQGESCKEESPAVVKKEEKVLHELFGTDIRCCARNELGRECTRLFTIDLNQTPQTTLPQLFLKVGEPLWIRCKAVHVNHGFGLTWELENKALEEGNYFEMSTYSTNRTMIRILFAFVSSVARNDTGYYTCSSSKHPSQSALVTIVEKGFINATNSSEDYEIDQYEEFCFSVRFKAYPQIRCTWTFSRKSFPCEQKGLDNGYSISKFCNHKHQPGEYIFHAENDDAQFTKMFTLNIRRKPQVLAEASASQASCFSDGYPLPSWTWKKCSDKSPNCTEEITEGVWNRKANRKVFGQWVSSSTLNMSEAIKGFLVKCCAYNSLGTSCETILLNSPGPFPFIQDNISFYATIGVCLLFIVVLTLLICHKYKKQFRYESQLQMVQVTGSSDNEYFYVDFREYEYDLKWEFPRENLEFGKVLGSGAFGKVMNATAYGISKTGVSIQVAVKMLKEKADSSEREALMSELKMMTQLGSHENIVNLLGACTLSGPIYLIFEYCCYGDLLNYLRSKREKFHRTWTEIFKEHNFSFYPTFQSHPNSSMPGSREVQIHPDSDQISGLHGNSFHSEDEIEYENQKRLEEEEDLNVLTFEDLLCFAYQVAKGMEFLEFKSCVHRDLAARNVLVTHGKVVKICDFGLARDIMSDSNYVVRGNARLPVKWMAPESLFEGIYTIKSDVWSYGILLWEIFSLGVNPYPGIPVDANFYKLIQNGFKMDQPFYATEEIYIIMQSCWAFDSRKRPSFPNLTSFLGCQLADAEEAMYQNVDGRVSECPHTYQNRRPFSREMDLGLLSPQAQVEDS

[1] = molecular target: T2, Ba/F3 FLT3 (ITD/D835YF691L) (Homo sapiens, UniProt P36888, F691L/D835Y, cells depend on it, form not given); test: as above; assay type: cell-based; settings: read-out: Ba/F3 GI50s (μM) FLT3 (ITD/D835YF691L)
T2 sequence (P36888 1-993 F691L/D835Y): T1 sequence (P36888 1-993) with F691L, D835Y

SMILES	GI50 (Ba/F3 FLT3 (ITD)) [µM]	GI50 [1] [µM]
CS(=O)(=O)Nc1cccc(-c2ccc3cnc(Nc4ccc(N5CCN(CCCOc6cccc7c6C(=O)N(C6CCC(=O)NC6=O)C7=O)CC5)cc4)nn23)c1 (stereo not shown) [Example 40]	< 1	< 1
CS(=O)(=O)Nc1cccc(-c2ccc3cnc(Nc4ccc(N5CCN(CCCCCCCOc6cccc7c6C(=O)N(C6CCC(=O)NC6=O)C7=O)CC5)cc4)nn23)c1 (stereo not shown) [Example 41]	< 1	< 1
CS(=O)(=O)Nc1cccc(-c2ccc3cnc(Nc4ccc(N5CCN(CCCCCCCCCCCOc6cccc7c6C(=O)N(C6CCC(=O)NC6=O)C7=O)CC5)cc4)nn23)c1 (stereo not shown) [Example 42]	< 1	1 to 10
Cc1ncsc1-c1ccc(CNC(=O)[C@@H]2C[C@@H](O)CN2C(=O)[C@@H](NC(=O)COCCN2CCN(c3ccc(Nc4ncc5ccc(-c6cccc(NS(C)(=O)=O)c6)n5n4)cc3)CC2)C(C)(C)C)cc1 [Example 83, (2S,4R)-1-((S)-3,3-dimethyl-2-(2-(2-(4-(4-((7-(3-(methanesulfonamido)phenyl)pyrrolo[2,1-f][1,2,4]triazin-2-yl)amino)phenyl)piperazin-1-yl)ethoxy)acetaamino)butanoyl)-4-hydroxy-N-(4-(4-methylthiazol-5-yl)benzyl)pyrrolidin-2-carboxamide]	< 1	≥ 10
Cc1ncsc1-c1ccc(CNC(=O)[C@@H]2C[C@@H](O)CN2C(=O)[C@@H](NC(=O)CCOCCOCCN2CCN(c3ccc(Nc4ncc5ccc(-c6cccc(NS(C)(=O)=O)c6)n5n4)cc3)CC2)C(C)(C)C)cc1 [Example 84, (2S,4R)-1-((S)-3,3-dimethyl-2-(3-(2-(2-(4-(4-((7-(3-(methanesulfonamido)phenyl)pyrrolo[2,1-f][1,2,4]triazin-2-yl)amino)phenyl)piperazin-1-yl)ethoxy)ethoxy)propanamido)butanoyl)-4-hydroxy-N-(4-(4-methylthiazol-5-yl)benzyl)pyrrolidin-2-carboxamide]	1 to 10	≥ 10
